Results published in US20110313046A1, “COMBINATION THERAPY WITH LISDEXAMPHETAMINE AND EXTENDED RELEASE GUANFACINE” (priority 2010, published 2011).
Read-outs that look alike come from different tables or passages of the source.

Experiments:
[1] = d-Amphetamine plasma pharmacokinetics, crossover drug-drug interaction study; assay type: in vivo, healthy adults
Protocol: (§1) An open-label, randomized, single-center, 3-period, crossover, drug-drug interaction study in 42 healthy adults (18-45 years old) was performed. Subjects received three single, oral dose treatments: 4 mg extended release guanfacine, 50 mg lisdexamphetmaine, and 4 mg extended release guanfacine in combination with 50 mg lisdexamphetmaine. Subjects underwent the three treatment periods with a 7-day washout between each treatment.

[2] = Lisdexamphetamine plasma pharmacokinetics, crossover drug-drug interaction study; assay type: in vivo, healthy adults; design: lisdexamphetamine plasma concentration, Mean / lisdexamphetamine plasma concentration, Median / lisdexamphetamine plasma concentration, Min / lisdexamphetamine plasma concentration, Max: unit not given here; conditions: for AUC / AUC(0-t) / Cmax / Tmax / Vd/F / CL/F: po, 50 mg
Protocol: as §1

[3] = Adverse events and safety, crossover drug-drug interaction study; assay type: in vivo, healthy adults; conditions: TEAEs by treatment; single oral dose (SPD503 4 mg, VYVANSE 50 mg)
Protocol: A “treatment-emergent adverse event” (TEAE) is an AE that occurred or worsened during the on-treatment period.
A “non-treatment-emergent adverse event” is an AE that occurred during the pre-treatment period or the post-treatment period.
as §1

CYP450 system = conditions: cited from earlier work
[4] = Guanfacine plasma pharmacokinetics, crossover drug-drug interaction study; design: species or system healthy adults; conditions: human, in vivo
Protocol: as §1

CYP3A4 = CYP3A4 (Homo sapiens, UniProt P08684); conditions: cited from earlier work
Sequence of CYP3A4 (P08684 whole entry, species assumed): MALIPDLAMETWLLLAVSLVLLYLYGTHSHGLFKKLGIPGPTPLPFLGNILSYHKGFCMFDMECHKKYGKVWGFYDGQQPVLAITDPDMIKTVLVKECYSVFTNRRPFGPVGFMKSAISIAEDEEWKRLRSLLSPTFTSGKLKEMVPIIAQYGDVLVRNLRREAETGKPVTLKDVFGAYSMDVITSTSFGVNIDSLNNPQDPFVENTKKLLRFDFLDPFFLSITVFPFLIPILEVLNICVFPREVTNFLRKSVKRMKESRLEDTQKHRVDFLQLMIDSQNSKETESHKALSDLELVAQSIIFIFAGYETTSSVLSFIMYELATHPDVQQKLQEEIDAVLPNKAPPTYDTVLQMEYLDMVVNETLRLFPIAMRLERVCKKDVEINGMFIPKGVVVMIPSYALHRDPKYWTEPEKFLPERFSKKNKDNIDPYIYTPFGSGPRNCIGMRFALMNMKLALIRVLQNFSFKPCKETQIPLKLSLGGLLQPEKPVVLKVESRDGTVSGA

[5] = young intact rhesus monkeys; cited from earlier work
[6] = single oral dose 50 mg, weight normalized
[7] = time 0.5, single oral dose 50 mg
[8] = time 1.5, single oral dose 50 mg
[9] = time 12, single oral dose 50 mg
[10] = time 24, single oral dose 50 mg
[11] = time 30, single oral dose 50 mg
[12] = time 48, single oral dose 50 mg
[13] = time 72, single oral dose 50 mg

In the case of C[C@@H](Cc1ccccc1)NC(=O)[C@@H](N)CCCCN [VYVANSE Alone, lisdexamphetamine dimesylate], the “mean d-amphetamine plasma concentrations, alone compared with co-administration” value ([1]; FIG. 2) was “essentially identical”, the “weight normalized CL/F, alone compared with combination” value ([1]; between the two treatments) was “essentially the same” and the “mean lisdexamphetamine plasma concentrations, alone compared with co-administration” value ([2]; FIG. 3) was “essentially identical”. The AUC ([2]; human, plasma, single oral dose 50 mg, read-out: lisdexamphetamine AUCinfo, Geo Mean) was 32.4 ng·h/mL, the AUC ([2]; human, plasma, single oral dose 50 mg, read-out: lisdexamphetamine AUCinfo, Mean) was 36.1 ng·h/mL and the AUC ([2]; human, plasma, single oral dose 50 mg, read-out: lisdexamphetamine AUCinfo, Median) was 33.2 ng·h/mL. It also gave an AUC(0-t) ([2]; human, plasma, single oral dose 50 mg, read-out: lisdexamphetamine AUClast, Geo Mean) of 28.3 ng·h/mL, an AUC(0-t) ([2]; human, plasma, single oral dose 50 mg, read-out: lisdexamphetamine AUClast, Mean) of 32.1 ng·h/mL and an AUC(0-t) ([2]; human, plasma, single oral dose 50 mg, read-out: lisdexamphetamine AUClast, Median) of 27.2 ng·h/mL. It also gave a Cmax ([2]; human, plasma, single oral dose 50 mg, read-out: lisdexamphetamine Cmax, Geo Mean) of 22.5 ng/mL, a Cmax ([2]; human, plasma, single oral dose 50 mg, read-out: lisdexamphetamine Cmax, Mean) of 26.1 ng/mL and a Cmax ([2]; human, plasma, single oral dose 50 mg, read-out: lisdexamphetamine Cmax, Median) of 25.2 ng/mL. For the same compound, the Tmax ([2]; human, plasma, single oral dose 50 mg, read-out: lisdexamphetamine Tmax, Geo Mean) was 1.1 h, the Tmax ([2]; human, plasma, single oral dose 50 mg, read-out: lisdexamphetamine Tmax, Mean) was 1.1 h and the Tmax ([2]; human, plasma, single oral dose 50 mg, read-out: lisdexamphetamine Tmax, Median) was 1 h. For the same compound, the Vd/F ([2]; human, plasma, single oral dose 50 mg, read-out: lisdexamphetamine VZ/F, Geo Mean) was 1090 L, the Vd/F ([2]; human, plasma, single oral dose 50 mg, read-out: lisdexamphetamine VZ/F, Mean) was 1270 L and the Vd/F ([2]; human, plasma, single oral dose 50 mg, read-out: lisdexamphetamine VZ/F, Median) was 1040 L. It also gave a CL/F ([2]; human, plasma, single oral dose 50 mg, weight normalized, read-out: lisdexamphetamine CL/F, Geo Mean (converted)) of 339 mL/min/kg, a CL/F ([2]; human, plasma, single oral dose 50 mg, weight normalized, read-out: lisdexamphetamine CL/F, Mean (converted)) of 362 mL/min/kg and a CL/F ([2]; human, plasma, single oral dose 50 mg, weight normalized, read-out: lisdexamphetamine CL/F, Median (converted)) of 345 mL/min/kg. It also gave a Vd/F ([2]; human, plasma, single oral dose 50 mg, weight normalized, read-out: lisdexamphetamine VZ/F, Geo Mean) of 14.4 L/kg, a Vd/F ([2]; human, plasma, single oral dose 50 mg, weight normalized, read-out: lisdexamphetamine VZ/F, Mean) of 16 L/kg and a Vd/F ([2]; human, plasma, single oral dose 50 mg, weight normalized, read-out: lisdexamphetamine VZ/F, Median) of 13.7 L/kg. For the same compound, the half-life ([2]; human, plasma, single oral dose 50 mg, read-out: lisdexamphetamine T1/2, Mean (converted)) was 0.5 h, the “lisdexamphetamine AUCinfo, Max” value ([2]; single oral dose 50 mg) was 95.6 ng·h/mL and the “lisdexamphetamine AUCinfo, Min” value ([2]; single oral dose 50 mg) was 14.2 ng·h/mL. For the same compound, the “lisdexamphetamine AUClast, Max” value ([2]; single oral dose 50 mg) was 94.3 ng·h/mL, the “lisdexamphetamine AUClast, Min” value ([2]; single oral dose 50 mg) was 10.2 ng·h/mL and the “lisdexamphetamine CL/F, Geo Mean” value ([2]; single oral dose 50 mg) was 1543 L/h. The “lisdexamphetamine CL/F, Max” value ([2]; single oral dose 50 mg) was 3523.94 L/h, the “lisdexamphetamine CL/F, Mean” value ([2]; single oral dose 50 mg) was 1701.28 L/h and the “lisdexamphetamine CL/F, Median” value ([2]; single oral dose 50 mg) was 1504.94 L/h. The “lisdexamphetamine CL/F, Min” value ([2]; single oral dose 50 mg) was 522.89 L/h, the “lisdexamphetamine Cmax, Max” value ([2]; single oral dose 50 mg) was 82.37 ng/mL and the “lisdexamphetamine Cmax, Min” value ([2]; single oral dose 50 mg) was 5.87 ng/mL. The “lisdexamphetamine T1/2, Geo Mean” value ([2]; single oral dose 50 mg) was 0.5 h, the “lisdexamphetamine T1/2, Max” value ([2]; single oral dose 50 mg) was 0.8 h and the “lisdexamphetamine T1/2, Min” value ([2]; single oral dose 50 mg) was 0.3 h. The “lisdexamphetamine Tmax, Max” value ([2]; single oral dose 50 mg) was 1.5 h, the “lisdexamphetamine Tmax, Min” value ([2]; single oral dose 50 mg) was 1 h and the “lisdexamphetamine CL/F, Max” value [2, 6] was 660.7 mL/min/kg. For the same compound, the “lisdexamphetamine CL/F, Min” value [2, 6] was 115 mL/min/kg, the “lisdexamphetamine plasma concentration, Max” value ([2]; time 0, single oral dose 50 mg) was 0 and the “lisdexamphetamine plasma concentration, Mean” value ([2]; time 0, single oral dose 50 mg) was 0. The “lisdexamphetamine plasma concentration, Median” value ([2]; time 0, single oral dose 50 mg) was 0, the “lisdexamphetamine plasma concentration, Min” value ([2]; time 0, single oral dose 50 mg) was 0 and the “lisdexamphetamine plasma concentration, Max” value [2, 7] was 54.99. The “lisdexamphetamine plasma concentration, Mean” value [2, 7] was 8.5483, the “lisdexamphetamine plasma concentration, Median” value [2, 7] was 4.51 and the “lisdexamphetamine plasma concentration, Min” value [2, 7] was 0. For the same compound, the “lisdexamphetamine plasma concentration, Max” value ([2]; time 1, single oral dose 50 mg) was 82.37, the “lisdexamphetamine plasma concentration, Mean” value ([2]; time 1, single oral dose 50 mg) was 24.921 and the “lisdexamphetamine plasma concentration, Median” value ([2]; time 1, single oral dose 50 mg) was 23.56. For the same compound, the “lisdexamphetamine plasma concentration, Min” value ([2]; time 1, single oral dose 50 mg) was 4.5, the “lisdexamphetamine plasma concentration, Max” value [2, 8] was 41.42 and the “lisdexamphetamine plasma concentration, Mean” value [2, 8] was 17.7205. For the same compound, the “lisdexamphetamine plasma concentration, Median” value [2, 8] was 15.72, the “lisdexamphetamine plasma concentration, Min” value [2, 8] was 5.87 and the “lisdexamphetamine plasma concentration, Max” value ([2]; time 2, single oral dose 50 mg) was 19.94. The “lisdexamphetamine plasma concentration, Mean” value ([2]; time 2, single oral dose 50 mg) was 9.0166, the “lisdexamphetamine plasma concentration, Median” value ([2]; time 2, single oral dose 50 mg) was 8.17 and the “lisdexamphetamine plasma concentration, Min” value ([2]; time 2, single oral dose 50 mg) was 2.42. For the same compound, the “lisdexamphetamine plasma concentration, Max” value ([2]; time 3, single oral dose 50 mg) was 6.32, the “lisdexamphetamine plasma concentration, Mean” value ([2]; time 3, single oral dose 50 mg) was 1.8902 and the “lisdexamphetamine plasma concentration, Median” value ([2]; time 3, single oral dose 50 mg) was 1.87. The “lisdexamphetamine plasma concentration, Min” value ([2]; time 3, single oral dose 50 mg) was 0, the “lisdexamphetamine plasma concentration, Max” value ([2]; time 4, single oral dose 50 mg) was 2.28 and the “lisdexamphetamine plasma concentration, Mean” value ([2]; time 4, single oral dose 50 mg) was 0.2849. For the same compound, the “lisdexamphetamine plasma concentration, Median” value ([2]; time 4, single oral dose 50 mg) was 0, the “lisdexamphetamine plasma concentration, Min” value ([2]; time 4, single oral dose 50 mg) was 0 and the “lisdexamphetamine plasma concentration, Max” value ([2]; time 6, single oral dose 50 mg) was 0. For the same compound, the “lisdexamphetamine plasma concentration, Mean” value ([2]; time 6, single oral dose 50 mg) was 0, the “lisdexamphetamine plasma concentration, Median” value ([2]; time 6, single oral dose 50 mg) was 0 and the “lisdexamphetamine plasma concentration, Min” value ([2]; time 6, single oral dose 50 mg) was 0. For the same compound, the “lisdexamphetamine plasma concentration, Max” value ([2]; time 8, single oral dose 50 mg) was 0, the “lisdexamphetamine plasma concentration, Mean” value ([2]; time 8, single oral dose 50 mg) was 0 and the “lisdexamphetamine plasma concentration, Median” value ([2]; time 8, single oral dose 50 mg) was 0. The “lisdexamphetamine plasma concentration, Min” value ([2]; time 8, single oral dose 50 mg) was 0, the “lisdexamphetamine plasma concentration, Max” value [2, 9] was 0 and the “lisdexamphetamine plasma concentration, Mean” value [2, 9] was 0. The “lisdexamphetamine plasma concentration, Median” value [2, 9] was 0, the “lisdexamphetamine plasma concentration, Min” value [2, 9] was 0 and the “lisdexamphetamine plasma concentration, Max” value [2, 10] was 0. The “lisdexamphetamine plasma concentration, Mean” value [2, 10] was 0, the “lisdexamphetamine plasma concentration, Median” value [2, 10] was 0 and the “lisdexamphetamine plasma concentration, Min” value [2, 10] was 0. The “lisdexamphetamine plasma concentration, Max” value [2, 11] was 0, the “lisdexamphetamine plasma concentration, Mean” value [2, 11] was 0 and the “lisdexamphetamine plasma concentration, Median” value [2, 11] was 0. The “lisdexamphetamine plasma concentration, Min” value [2, 11] was 0, the “lisdexamphetamine plasma concentration, Max” value [2, 12] was 0 and the “lisdexamphetamine plasma concentration, Mean” value [2, 12] was 0. For the same compound, the “lisdexamphetamine plasma concentration, Median” value [2, 12] was 0, the “lisdexamphetamine plasma concentration, Min” value [2, 12] was 0 and the “lisdexamphetamine plasma concentration, Max” value [2, 13] was 0. For the same compound, the “lisdexamphetamine plasma concentration, Mean” value [2, 13] was 0, the “lisdexamphetamine plasma concentration, Median” value [2, 13] was 0 and the “lisdexamphetamine plasma concentration, Min” value [2, 13] was 0. For the same compound, the “TEAE: Any Event” value [3] was 8 (19.5) n (%), the “TEAE: Arrhythmia supraventricular” value [3] was 1 (2.4) n (%) and the “TEAE: Cardiac disorders” value [3] was 3 (7.3) n (%). The “TEAE: Diarrhoea” value [3] was 0 (0.0) n (%), the “TEAE: Dizziness” value [3] was 3 (7.3) n (%) and the “TEAE: Dizziness postural” value [3] was 1 (2.4) n (%). The “TEAE: Dry mouth” value [3] was 1 (2.4) n (%), the “TEAE: Dysmenorrhoea” value [3] was 1 (2.4) n (%) and the “TEAE: Flushing” value [3] was 0 (0.0) n (%). For the same compound, the “TEAE: Gastrointestinal disorders” value [3] was 2 (4.9) n (%), the “TEAE: General disorders and administration site conditions” value [3] was 0 (0.0) n (%) and the “TEAE: Headache” value [3] was 2 (4.9) n (%). For the same compound, the “TEAE: Nausea” value [3] was 1 (2.4) n (%), the “TEAE: Nervous system disorders” value [3] was 4 (9.8) n (%) and the “TEAE: Nervousness” value [3] was 2 (4.9) n (%). For the same compound, the “TEAE: Non-cardiac chest pain” value [3] was 0 (0.0) n (%), the “TEAE: Orthostatic hypotension” value [3] was 0 (0.0) n (%) and the “TEAE: Palpitations” value [3] was 1 (2.4) n (%). The “TEAE: Paraesthesia” value [3] was 0 (0.0) n (%), the “TEAE: Psychiatric disorders” value [3] was 2 (4.9) n (%) and the “TEAE: Psychomotor hyperactivity” value [3] was 1 (2.4) n (%). For the same compound, the “TEAE: Reproductive system and breast disorders” value [3] was 1 (2.4) n (%), the “TEAE: Supraventricular extrasystoles” value [3] was 0 (0.0) n (%) and the “TEAE: Tachycardia” value [3] was 1 (2.4) n (%). For the same compound, the “TEAE: Vascular disorders” value [3] was 0 (0.0) n (%), the “TEAE: Wandering pacemaker” value [3] was 1 (2.4) n (%) and the “induction or inhibition of the CYP450 system” value (CYP450 system) was “neither an inducer nor inhibitor”. For the same compound, the “metabolism by the CYP450 system” value (CYP450 system) was “not metabolized by the CYP450 system”.

For Cl.N=C(N)NC(=O)Cc1c(Cl)cccc1Cl [guanfacine], the “guanfacine Cmax in combination compared with alone” value [4] is given as “higher than when administered alone”, the “metabolism by CYP3A4” value (CYP3A4) is given as “known to be metabolized by CYP3A4” and the delayed response performance [5] is given as “can be improved”.
